According to patent US20240384268A1, “Oligonucleotides” (Hudson Institute of Medical Research, priority 2021, published 2024):
In the oligonucleotide strings, read from the 5' end, every base follows the letter of its sugar. An asterisk marks phosphorothioate; unmarked linkages are phosphodiester. Other units and linkages are bracketed, terminal groups are in braces. A string of capitals states the bases alone. d = 2'-deoxy (DNA); m = 2'-O-methyl

Biological target: T1, TLR8 (Homo sapiens, UniProt Q9NR97)
T1 sequence (Q9NR97 27-1041): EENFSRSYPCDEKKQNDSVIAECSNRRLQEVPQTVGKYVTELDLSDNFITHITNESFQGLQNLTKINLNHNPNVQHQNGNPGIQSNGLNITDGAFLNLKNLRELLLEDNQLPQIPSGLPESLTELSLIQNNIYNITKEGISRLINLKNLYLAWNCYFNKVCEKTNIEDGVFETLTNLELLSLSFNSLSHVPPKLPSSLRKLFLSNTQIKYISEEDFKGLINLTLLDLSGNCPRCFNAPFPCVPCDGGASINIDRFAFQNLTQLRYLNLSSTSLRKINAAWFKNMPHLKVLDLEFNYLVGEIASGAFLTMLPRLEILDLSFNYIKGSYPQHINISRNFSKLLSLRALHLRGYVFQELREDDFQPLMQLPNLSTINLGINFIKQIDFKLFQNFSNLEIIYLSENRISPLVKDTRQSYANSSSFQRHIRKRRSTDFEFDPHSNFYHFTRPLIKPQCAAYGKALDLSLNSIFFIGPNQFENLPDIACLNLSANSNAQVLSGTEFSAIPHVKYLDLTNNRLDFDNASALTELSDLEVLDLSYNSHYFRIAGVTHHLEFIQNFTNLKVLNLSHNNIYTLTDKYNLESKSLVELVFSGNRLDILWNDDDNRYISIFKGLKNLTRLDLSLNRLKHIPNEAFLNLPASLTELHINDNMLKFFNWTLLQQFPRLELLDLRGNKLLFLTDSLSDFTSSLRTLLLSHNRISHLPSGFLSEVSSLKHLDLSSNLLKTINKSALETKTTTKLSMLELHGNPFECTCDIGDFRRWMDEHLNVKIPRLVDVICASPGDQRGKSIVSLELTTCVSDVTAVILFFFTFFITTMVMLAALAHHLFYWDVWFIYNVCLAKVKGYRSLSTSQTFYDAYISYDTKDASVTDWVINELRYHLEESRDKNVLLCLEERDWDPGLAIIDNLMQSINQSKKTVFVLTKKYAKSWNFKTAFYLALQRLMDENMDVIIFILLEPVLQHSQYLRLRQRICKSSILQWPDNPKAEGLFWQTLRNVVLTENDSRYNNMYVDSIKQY
Assay: HEK-TLR8 NF-κB-luciferase reporter, R848 or Motolimod stimulation (potentiation or inhibition)
Type: cell-based
Design: expressed in transfected cells; host or cells: 293XLhTLR8 (HEK293)
Conditions: for TLR8-500 nM: averaged NF-κB-Luciferase relative to R848: HEK-TLR8, 500 nM ASO, fold increase relative to R848 without ASO (Alharbi et al., 2020); for TLR8 100 nM: MOE-modified ASO at 100 nM; for TLR8 100 nM / TLR8 500 nM: averaged NF-κB-Luciferase relative to R848 condition (fold increase); for TLR8 500 nM: MOE-modified ASO at 500 nM

Substance	TLR8-500 nM: averaged NF-κB-Luciferase relative to R848 [fold]	TLR8 100 nM	TLR8 500 nM
mU*mA*mA*mA*mA*T*A*A*G*G*G*G*A*A*T*mA*mG*mG*mG*mG (mU*mA*mA*mA*mA*dT*dA*dA*dG*dG*dG*dG*dA*dA*dT*mA*mG*mG*mG*mG) [[CDKN2B-AS1]80]	1.30	–	–
GCCCATCCATGAGGTCCTGG (antisense; 2'-MOE modified, pattern not given here) [CTNN2B-2545 MOE]	–	0.899	0.541
mG*mG*mA*mU*mU*A*A*A*A*C*A*G*A*T*T*mA*mA*mU*mA*mC (GGAUUAAAACAGATTAAUAC; sugars from the 5' end m5 d10 m5, all phosphorothioate, methylation of C not given here) [[CDKN2B-AS1]1774]	1.67	–	–
mA*mA*mA*mA*mG*A*T*T*A*T*C*T*T*C*T*mU*mU*mU*mA*mA (AAAAGATTATCTTCTUUUAA; sugars from the 5' end m5 d10 m5, all phosphorothioate, methylation of C not given here) [[CDKN2B-AS1]2133]	4.68	–	–
mG*mA*mU*mU*mA*A*A*A*C*A*G*A*T*T*A*mA*mU*mA*mC*mA (mG*mA*mU*mU*mA*dA*dA*dA*dC*dA*dG*dA*dT*dT*dA*mA*mU*mA*mC*mA) [[CDKN2B-AS1]1773]	1.48	–	–
mA*mA*mU*mU*mU*A*A*A*G*C*A*T*G*A*A*mU*mA*mU*mU*mA (mA*mA*mU*mU*mU*dA*dA*dA*dG*dC*dA*dT*dG*dA*dA*mU*mA*mU*mU*mA) [[CDKN2B-AS1]645]	5.02	–	–
mC*mU*mC*mU*mC*T*G*G*T*C*C*C*A*T*C*mC*mC*mU*mU*mC (mC*mU*mC*mU*mC*dT*dG*dG*dT*dC*dC*dC*dA*dT*dC*mC*mC*mU*mU*mC; antisense) [[LINC-PINT]109]	10.10	–	–
mA*mG*mG*mA*mU*T*A*A*A*A*C*A*G*A*T*mU*mA*mA*mU*mA (mA*mG*mG*mA*mU*dT*dA*dA*dA*dA*dC*dA*dG*dA*dT*mU*mA*mA*mU*mA) [[CDKN2B-AS1] 1775]	2.63	–	–
mU*mC*mU*mC*mU*G*G*T*C*C*C*A*T*C*C*mC*mU*mU*mC*mU (UCUCUGGTCCCATCCCUUCU; antisense; sugars from the 5' end m5 d10 m5, all phosphorothioate, methylation of C not given here) [[LINC-PINT]108]	11.42	–	–
mU*mG*mA*mC*mA*T*T*T*C*G*T*G*G*C*T*mC*mC*mU*mA*mC (mU*mG*mA*mC*mA*dT*dT*dT*dC*dG*dT*dG*dG*dC*dT*mC*mC*mU*mA*mC; antisense) [[LINC-PINT]523 KL]	4.34	–	–
mU*mU*mG*mU*mG*A*A*A*A*G*A*T*T*A*T*mC*mU*mU*mC*mU (mU*mU*mG*mU*mG*dA*dA*dA*dA*dG*dA*dT*dT*dA*dT*mC*mU*mU*mC*mU) [[CDKN2B-AS1]2138]	1.94	–	–
mA*mA*mG*mA*mU*T*A*T*C*T*T*C*T*T*T*mU*mA*mA*mU*mU (mA*mA*mG*mA*mU*dT*dA*dT*dC*dT*dT*dC*dT*dT*dT*mU*mA*mA*mU*mU) [[CDKN2B-AS1]2131]	5.62	–	–
mG*mU*mC*mC*mC*A*T*C*C*C*T*T*C*T*G*mC*mU*mG*mC*mC (GUCCCATCCCTTCTGCUGCC; antisense; sugars from the 5' end m5 d10 m5, all phosphorothioate, methylation of C not given here) [[LINC-PINT]102]	5.07	–	–
TCCGGCCTCGGAAGCTCTCT (antisense; 2'-MOE modified, pattern not given here) [MB21D1-168 MOE]	–	0.816	0.781
mA*mU*mG*mA*mC*A*T*T*T*C*G*T*G*G*C*mU*mC*mC*mU*mA (mA*mU*mG*mA*mC*dA*dT*dT*dT*dC*dG*dT*dG*dG*dC*mU*mC*mC*mU*mA) [[LINC-PINT]524.1]	1.20	–	–
mC*mA*mC*mC*mC*T*T*C*T*C*T*C*T*G*G*mU*mC*mC*mC*mA (CACCCTTCTCTCTGGUCCCA; antisense; sugars from the 5' end m5 d10 m5, all phosphorothioate, methylation of C not given here) [[LINC-PINT]116]	5.97	–	–
mU*mC*mC*mC*mA*T*C*C*C*T*T*C*T*G*C*mU*mG*mA*mC*mA (UCCCATCCCTTCTGCUGACA; sugars from the 5' end m5 d10 m5, all phosphorothioate, methylation of C not given here) [[LINC-PINT]101]	10.88	–	–
mA*mC*mC*mC*mU*T*C*T*C*T*C*T*G*G*T*mC*mC*mC*mA*mU (mA*mC*mC*mC*mU*dT*dC*dT*dC*dT*dC*dT*dG*dG*dT*mC*mC*mC*mA*mU; antisense) [[LINC-PINT]115]	7.57	–	–
mU*mG*mA*mU*mG*A*T*G*C*T*T*G*C*A*G*mG*mA*mG*mG*mC (mU*mG*mA*mU*mG*dA*dT*dG*dC*dT*dT*dG*dC*dA*dG*mG*mA*mG*mG*mC) [[LINC-PINT|283.1]	1.57	–	–
mG*mA*mA*mA*mA*G*A*T*T*A*T*C*T*T*C*mU*mU*mU*mU*mA (GAAAAGATTATCTTCUUUUA; sugars from the 5' end m5 d10 m5, all phosphorothioate, methylation of C not given here) [[CDKN2B-AS1]2134]	1.87	–	–
mG*mG*mU*mC*mC*C*A*T*C*C*C*T*T*C*T*mG*mC*mU*mG*mC (GGUCCCATCCCTTCTGCUGC; sugars from the 5' end m5 d10 m5, all phosphorothioate, methylation of C not given here) [[LINC-PINT]103]	1.87	–	–
GGTTTTGGCTGGGATCAAGT (antisense; 2'-MOE modified, pattern not given here) [CAMSAP1-4697 MOE]	–	5.496	6.332
mA*mA*mG*mG*mU*G*G*C*C*A*C*A*G*G*C*mA*mA*mC*mG*mU (mA*mA*mG*mG*mU*dG*dG*dC*dC*dA*dC*dA*dG*dG*dC*mA*mA*mC*mG*mU; antisense) [[CDKN2B-AS1]2198]	0.78	–	–
mA*mG*mC*mC*mG*A*A*C*A*G*A*A*G*G*A*mG*mC*mG*mU*mC (AGCCGAACAGAAGGAGCGUC; sugars from the 5' end m5 d10 m5, all phosphorothioate, methylation of C not given here) [[LINC-PINT]587 KL]	3.73	–	–
mA*mG*mA*mU*mU*A*T*C*T*T*C*T*T*T*T*mA*mA*mU*mU*mU (AGAUUATCTTCTTTTAAUUU; sugars from the 5' end m5 d10 m5, all phosphorothioate, methylation of C not given here) [[CDKN2B-AS1]2130]	6.26	–	–
mA*mU*mA*mU*mC*T*G*C*T*G*C*C*C*A*C*mC*mU*mU*mC*mU (AUAUCTGCTGCCCACCUUCU; antisense; sugars from the 5' end m5 d10 m5, all phosphorothioate, methylation of C not given here) [[CDKN2B-AS1]831]	5.89	–	–
TGGCAGGCTCAGTGATGTCT (antisense; 2'-MOE modified, pattern not given here) [CTNN2B-1642 MOE]	–	1.074	0.973
mG*mC*mA*mA*mG*G*C*A*G*A*G*A*A*A*C*mU*mC*mC*mA*mG (GCAAGGCAGAGAAACUCCAG; sugars from the 5' end m5 d10 m5, all phosphorothioate, methylation of C not given here) [[LINC-PINT]1315 KL]	2.69	–	–
mC*mC*mA*mU*mC*C*C*T*T*C*T*G*C*T*G*mC*mC*mA*mA*mG (mC*mC*mA*mU*mC*dC*dC*dT*dT*dC*dT*dG*dC*dT*dG*mC*mC*mA*mA*mG; antisense) [ILING-PINT199]	5.67	–	–
mU*mU*mU*mG*mA*A*A*T*T*C*A*G*A*A*G*mA*mU*mU*mU*mG (mU*mU*mU*mG*mA*dA*dA*dT*dT*dC*dA*dG*dA*dA*dG*mA*mU*mU*mU*mG) [[LINC PINT|2690]	4.93	–	–
